Key:
wheat seeds = experiment: Seed soak screen (Example 1, Step 1, Experiments 1-4); format: in vivo
Procedure: The seeds are rinsed in sterile distilled water and then soaked in a herbicide concentration for a set period of time, as described below. Sets of twenty-five seeds are placed into 25 ml of the herbicide solution described below in a sterile 100×15 mm plastic petri dish and soaked for the designated time. The seeds are rinsed with water, dried with paper towels and planted (25 seeds/flat) approximately ½″ deep in 6×8 inch peat flats containing a moist, sterile, artificial soil, Metro Mix 350™ (Grace Company, Cambridge, Mass.). The treatments are evaluated at four weeks after treatment. The herbicides, rates and time periods evaluated are described below:
Each treatment is replicated four times.
Each treatment is replicated two times.
The protocol is as described above except that 35 seeds are soaked per petri dish; 25 seeds are still planted per flat. This experiment is repeated twice.

[1] = test system: M4 progeny of wheat selections FS1-FS4 and Fidel; experiment: Segregation Study, postemergence spray of M4 progeny; format: in vivo
Procedure: A study is performed to assay M4 progeny of the initial mutant wheat selections for imidazolinone resistance and homogeneity. M4 seeds, from M3 plants (derived from initial selections, FS1-FS4) which survive the two-step screen described previously, are used in this study. In addition, M4 seeds derived from M3 plants of each selection which are not screened (designated “stock” plants) are evaluated as well as Fidel controls. Seeds, derived from both stock and screened M3 plants representing each infloresence of each original wheat selection (FS1-FS4), are planted in flats at a rate of twenty-five seeds per row and eight rows per flat. One week after planting, when the seedlings are at Z12 (two leaf) stage, the plants are sprayed with 62.5 g/ha PURSUIT™. The herbicide is applied with a laboratory belt sprayer at a rate of 950 L/ha with a belt speed of 12.5 sec/rev. using sprayer nozzle #40015E at a height 18 inches above the plants. Tween 20™ is used as a surfactant at 0.25% v/v. Plants are evaluated three weeks after spraying.

[2] = test system: F2 progeny of Fidel x FS1-FS4 crosses and Fidel; experiment: Genetic Condition Studies Experiment 4, F2 of (Fidel x FS) selfed; format: in vivo, wheat; conditions: 200 g/ha postemergence
Text: Experiment 4: The resistant wheat selections, FS1-FS4, are crossed to Fidel and the F1 seed from these crosses is selfed. The crosses are as follows: (Fidel×FS1) selfed (Fidel×FS2) selfed (Fidel×FS3) selfed (Fidel×FS4) selfed
The F2 progeny from these crosses and their susceptible progenitor variety Fidel are planted in flats. Five F2 progenies are used for each of the four crosses. One flat is planted of each progeny for each cross. The flats consist of six rows per flat with 25 seeds per row. The flats are sprayed postemergence with 200 g/ha PURSUIT™ eleven days later. The PURSUIT™ is applied as previously described.

Compound: CCc1cnc(C2=NC(C)(C(C)C)C(=O)N2)c(C(=O)O)c1 (stereo not shown) [PURSUIT, 5-ethyl-2-(4-isopropyl-4-methyl-5-oxo-2-imidazolin-2-yl)-nicotinic acid]
- concentration that prevents the survival of potential false positives (wheat seeds; seed soak for 72 hours): 1000 µM
- concentration that prevents the survival of potential false positives (wheat seeds; seed soak for 96 hours): 750 µM
- susceptibility of Fidel ([1]; Fidel, 62.5 g/ha postemergence at Z12 stage, three weeks after spraying, all plants die): completely susceptible
- tolerance of resistant selections ([1]; imidazolinone-resistant winter wheat selections, M4, 62.5 g/ha postemergent, greenhouse): excellent tolerance
- segregation ratio of F2 progenies ([2]; F2 of each of the four crosses (Fidel x FS1-FS4) selfed): 3 (resistant): 1 (susceptible)
- lethality ([2]; plants heterozygous or homozygous for resistance): non-lethal
- lethality ([2]; susceptible wheat): lethal to susceptible wheat

From US7034208B1, “Ahas inhibiting herbicide resistant wheat and method for selection thereof” (BASF Aktiengellschaft, priority 1991, dated 2006)
